Measurements from patent US20250345459A1, “COMPOUND OR SALT THEREOF, LIPID COMPOSITION, PHARMACEUTICAL COMPOSITION, AND DELIVERY CARRIER” (FUJIFILM Corporation, priority 2023, published 2025).

What was measured:
[1] = system: ICR mice; assay: EPO protein expression in mice after intravenous EPO mRNA lipid nanoparticles; format: in vivo; conditions: mRNA 0.1 mg/kg, plasma 6 hours after administration
Experimental: (§1) The compounds described in Table 1, the neutral lipid, cholesterol (product name: Cholesterol HP; NIPPON FINE CHEMICAL CO., LTD.), and 1,2-dimyristoyl-rac-glycero-3-(methylpolyoxyethylene 2000) (hereinafter, called DMG-PEG2000) (product name: SUNBRIGHT® GM-020; NOF corporation) were dissolved in ethanol at a molar ratio of ionized lipid:neutral lipid:cholesterol:DMG-PEG2000=50:10:38.5:1.5 mol % such that the total lipid concentration was 12.5 mmol/L, to obtain an oil phase.
(§2) As the neutral lipid, 1,2-distearoyl-sn-glycero-3-phosphocholine (product name: COATSOME® MC-8080; NOF corporation) (hereinafter, DSPC), or L-α-dioleoylphosphatidylethanolamine (hereinafter, DOPE) (product name: COATSOME® MC-8181; NOF corporation) was used.
(§3) EPO mRNA (product name: CleanCap EPO mRNA (5 moU); TriLink) was diluted with 50 mmol/L citrate buffer having a pH 4.0 such that the weight ratio of total lipid concentration to mRNA concentration is about 20:1 to 64:1, thereby obtaining a water phase. Then, the water phase and the oil phase were mixed together using NanoAssemblr (Precision NanoSystems) such that the volume ratio of water phase:oil phase was 3:1. The mixed solution was diluted 2-fold with any of phosphate buffered physiological saline (PBS), water, or a 20 mmol/L Tris buffer solution (pH 7.4) to obtain a dispersion liquid of mRNA lipid nanoparticles. The dispersion liquid was dialyzed with 20 mmol/L Tris buffer solution (pH 7.4) containing 8% sucrose using a dialysis cassette (Slide-A-Lyzer G2, MWCO: 10 kD, Thermo Fisher Scientific) to remove ethanol, thereby obtaining EPO mRNA-encapsulating lipid nanoparticles.
The dispersion liquid of mRNA lipid nanoparticles prepared in above <Preparation of EPO mRNA-encapsulating lipid nanoparticles> was intravenously administered to ICR mice at a mRNA dosage of 0.1 mg/kg. 6 hours after the administration, blood was collected from the caudal vena cava, thereby obtaining plasma. The human EPO […] was quantified by using the obtained blood plasma and Erythropoietin (EPO) Human Elisa Kit (Abcam.plc). The quantitative value is described as a relative amount of EPO protein in a case where Comparative Example 1 is 1.

[2] = system: EPO mRNA; assay: mRNA encapsulation rate of mRNA lipid nanoparticles; format: physicochemical
Experimental: as §1, §2, §3
EPO mRNA was diluted with MilliQ water to prepare a diluted sample in 2-fold dilution series from 100 µg/mL to […], and a calibration curve solution was prepared. 50 μL of the calibration curve solution or the mRNA lipid nanoparticles was mixed with 450 μL of methanol to prepare a measurement solution.
The absorbance of each measurement solution at 260 nm and 330 nm was measured using a UV plate reader (Multiskan Go, Thermo Fisher Scientific), the absorbance at 330 nm was subtracted from the absorbance at 260 nm, and the result was defined as the absorbance of each measurement solution. The total […] nucleic acid concentration was calculated from the calibration curve using the absorbance of each sample measurement solution.
The concentration of the outer water phase nucleic acid was quantified by a standard addition method using a QuanT-iT RiboGreen RNA Assay Kit (Thermo Fisher Scientific). First, a 20× TE buffer included in the above kit was diluted with water, thereby obtaining a 1×TE buffer. TE represents Tris/EDTA (ethylenediaminetetraacetic acid). EPO mRNA was diluted with a TE buffer such that the final concentration was 0 to 400 ng/mL to prepare a nucleic acid diluted series. 10 μL of mRNA lipid nanoparticles diluted 5-fold with TE buffer and 90 µL of a nucleic acid dilution series were mixed in a 96-well plate, 100 μL of a Ribogreen reagent diluted 200-fold with TE buffer was added to each well, and then fluorescence (excitation wavelength: 485 nm, fluorescence wavelength: 535 nm) was measured using a fluorescence plate reader (Infinite 200 Pro M nano+, TECAN). From the obtained results, the outer water phase nucleic acid concentration of each measurement solution was calculated according to the standard addition method.
By using the quantification results of the total mRNA concentration and the mRNA concentration in the outer water phase that were obtained through the above steps, the mRNA encapsulation rate of the mRNA lipid nanoparticles was calculated according to the following Equation. […]

[3] = Particle size of EPO mRNA-encapsulating lipid nanoparticles; format: physicochemical
Experimental: as §1, §2, §3
The particle size of the mRNA-encapsulating lipid nanoparticles was measured by 5-fold diluting the dispersion liquid of lipid nanoparticle with phosphate buffered physiological saline (PBS) using a particle size measurement device NanoSaqla (Otsuka Electronics Co., Ltd.).

[4] = neutral lipid DOPE, Lipid/Nucleic acid (wt/wt) 64, Comparative Example 1 is 1
[5] = neutral lipid DSPC, Lipid/Nucleic acid (wt/wt) 20, Comparative Example 1 is 1
[6] = LNP with neutral lipid DOPE, mixed solution PBS, Lipid/Nucleic acid (wt/wt) 64
[7] = LNP with neutral lipid DSPC, mixed solution 20 mM Tris, Lipid/Nucleic acid (wt/wt) 20
[8] = LNP with neutral lipid DSPC, mixed solution PBS, Lipid/Nucleic acid (wt/wt) 20
[9] = LNP with neutral lipid DSPC, mixed solution Water, Lipid/Nucleic acid (wt/wt) 20

Compound	Nucleic acid encapsulation rate (%) [2, 6] [%]	Nucleic acid encapsulation rate (%) [2, 7] [%]	Nucleic acid encapsulation rate (%) [2, 8] [%]	Nucleic acid encapsulation rate (%) [2, 9] [%]	Particle size (nm) [3, 6] [nm]	Particle size (nm) [3, 7] [nm]	Particle size (nm) [3, 8] [nm]	Particle size (nm) [3, 9] [nm]	Relative amount of EPO protein (to Comparative Example 1) [1, 4]	Relative amount of EPO protein (to Comparative Example 1) [1, 5]
CCCCCCN(CCCCC(=O)OCC(CCCCC)CCCCC)C(=O)OCCN(CCOC(=O)N(CCCCCC)CCCCC(=O)OCC(CCCCC)CCCCC)CCN(CC)CC [Example 4, bis(2-pentylheptyl) 11-(2-(diethylamino)ethyl)-6,16-dihexyl-7,15-dioxo-8,14-dioxa-6,11,16-triazahenicosanedioate]	>99	91	92	91	109.5	96	94	93	13.62	12.27
CCCCCCC(CCCCCC)COC(=O)CCCCN(CCCC)C(=O)OCCN(CCOC(=O)N(CCCC)CCCCC(=O)OCC(CCCCCC)CCCCCC)CCN(CC)CC [Example 23, Bis(2-hexyloctyl) 6,16-dibutyl-11-(2-(diethylamino)ethyl)-7,15-dioxo-8,14-dioxa-6,11,16-triazahenicosanedioate]			79				180			1.61
CCCCCCN(CCCCCC(=O)OCC(CCCCC)CCCCC)C(=O)OCCN(CCOC(=O)N(CCCCCC)CCCCCC(=O)OCC(CCCCC)CCCCC)CCN(CC)CC [Example 25, Bis(2-pentylheptyl) 12-(2-(diethylamino)ethyl)-7,17-dihexyl-8,16-dioxo-9,15-dioxa-7,12,17-triazatricosanedioate]			78				167			3.56
CCCCCCC(CCCCCC)COC(=O)CCCCN(CCCCCC)C(=O)OCCN(CCOC(=O)N(CCCCCC)CCCCC(=O)OCC(CCCCCC)CCCCCC)CCN(CC)CC [Example 5, Bis(2-hexyloctyl) 11-(2-(diethylamino)ethyl)-6,16-dihexyl-7,15-dioxo-8,14-dioxa-6,11,16-triazahenicosanedioate]	99		93		106.8		88		11.74	9.14

The next lines start with results.

Nucleic acid encapsulation rate (%) [2, 6] [%]	Nucleic acid encapsulation rate (%) [2, 7] [%]	Nucleic acid encapsulation rate (%) [2, 8] [%]	Nucleic acid encapsulation rate (%) [2, 9] [%]	Particle size (nm) [3, 6] [nm]	Particle size (nm) [3, 7] [nm]	Particle size (nm) [3, 8] [nm]	Particle size (nm) [3, 9] [nm]	Compound	Relative amount of EPO protein (to Comparative Example 1) [1, 4]	Relative amount of EPO protein (to Comparative Example 1) [1, 5]
		91				178		CCCCCCN(CCCCCC(=O)OCC(CCCCC)CCCCC)C(=O)OCCN(CCCN(CC)CC)CCOC(=O)N(CCCCCC)CCCCCC(=O)OCC(CCCCC)CCCCC [Example 26, Bis(2-pentylheptyl) 12-(3-(diethylamino)propyl)-7,17-dihexyl-8,16-dioxo-9,15-dioxa-7,12,17-triazatricosanedioate]		4.10
		93				165		CCCCCCCCN(CCCCC(=O)OCC(CCCCC)CCCCC)C(=O)OCCN(CCCN(CC)CC)CCOC(=O)N(CCCCCCCC)CCCCC(=O)OCC(CCCCC)CCCCC [Example 35, Bis(2-pentylheptyl) 11-(3-(diethylamino)propyl)-6,16-dioctyl-7,15-dioxo-8,14-dioxa-6,11,16-triazahenicosanedioate]		6.49
		93				137		CCCCCCCCN(CCCCC(=O)OCC(CCCCCC)CCCCCC)C(=O)OCCN(CCCCN(CC)CC)CCOC(=O)N(CCCCCCCC)CCCCC(=O)OCC(CCCCCC)CCCCCC [Example 38, bis(2-hexyloctyl) 11-(4-(diethylamino)butyl)-6,16-dioctyl-7,15-dioxo-8,14-dioxa-6,11,16-triazahenicosanedioate]		9.99
		74				162		CCCCCCCCN(CCCCC(=O)OCCCCCCC)C(=O)OCCN(CCOC(=O)N(CCCCCCCC)CCCCC(=O)OCC(CCCCCC)CCCCCC)CCN(CC)CC [Example 40, 1-Heptyl 21-(2-hexyloctyl) 11-(2-(diethylamino)ethyl)-6,16-dioctyl-7,15-dioxo-8,14-dioxa-6,11,16-triazahenicosanedioate]		8.10
		82				154		CCCCCCCCOC(=O)CCCCN(CCCCCCCC)C(=O)OCCN(CCOC(=O)N(CCCCCCCC)CCCCC(=O)OCC(CCCCCC)CCCCCC)CCN(CC)CC [Example 42, 1-(2-Hexyloctyl) 21-octyl 11-(2-(diethylamino)ethyl)-6,16-dioctyl-7,15-dioxo-8,14-dioxa-6,11,16-triazahenicosanedioate]		6.39
